# Reference: patent US11154540B2, “Methods of treating ophthalmic disease/disorder or injury with ibudilast” (MediciNova, Inc., priority 2018, dated 2021)
# Entries after “also recorded” stand apart in the source; their conditions may differ.
# Experiments:
# [1] = tested on: subjects with primary or secondary progressive multiple sclerosis; assay: Optical coherence tomography (OCT) outcomes in the SPRINT-MS phase II randomized, double-blind, placebo-controlled trial; type: in vivo, human
# Description: This was a multicenter, randomized, double-blind, placebo-controlled, parallel-group study designed to evaluate the safety, tolerability and activity of ibudilast administered twice daily over a 96 week period in subjects with primary or secondary progressive multiple sclerosis. The primary objectives of the study were: • to evaluate the activity of ibudilast (100 mg/d) versus placebo at 96 weeks as measured by quantitative magnetic resonance imaging (MRI) analysis for whole brain atrophy using brain parenchymal fraction (BPF); • to evaluate the safety and tolerability of ibudilast (100 mg/d) versus placebo administered orally in subjects with primary and secondary progressive multiple sclerosis; and • to study the effect of ibudilast on macular measures from the SPRINT-MS phase II trial of ibudilast in progressive MS. The major secondary objectives were to evaluate the activity of ibudilast at 96 weeks versus placebo as measured by: • Diffusion tensor imaging (DTI) in descending pyramidal white matter tracts; • Magnetization transfer ratio (MTR) imaging in normal-appearing brain tissue; • Retinal nerve fiber layer as measured by Optical coherence tomography (OCT); and • Cortical atrophy as measured by cortical longitudinal atrophy detection algorithm ([…] total of 255 male and female subjects from 21 to 65 years old, inclusive, were enrolled into one of two treatment arms (ibudilast 100 mg/d or matching-placebo). Study population for SPRINT-MS was a mix of primary (53%) and secondary progressive (47%) MS, average age 56 years and median expanded disability status scale (EDSS)=6.0 at baseline. Randomization of subjects was stratified by disease status ([…]), and by immunomodulating therapy status: “untreated”, glatiramer acetate (GA), or interferon-beta. Subjects were allowed to continue using of interferon-beta (IFN-β) or glatiramer acetate while participating in this study. During the study, subjects were allowed to change medications from one injectable to the other. Pegylated interferon beta-1 were also allowed (if approved by the FDA). Inhaled and topical steroids are allowed. If a relapse episode occurred, a single course of systemic corticosteroids was permitted, as prescribed by the treating neurologist. Subjects returned to the clinic for follow-up visits on a regular basis at Week 4, 8, 12, 24, 36, 48, 60, 72, 84 and 96. The double-blind Treatment Phase consisted of a Baseline visit followed by 10 scheduled clinic visits. The Baseline Visit had to have occurred within 45 days following the Screening Visit. At the Baseline Visit (Day 1), subjects who completed all of the screening assessments and continued to meet eligibility criteria were randomized to one of two treatment groups (ibudilast 100 mg/d or placebo) in a 1:1 ratio. […] Subjects took their first dose of study medication (30 mg ibudilast or placebo) on the evening of the Baseline Visit (Day 1). On the morning of Day 2, all subjects begun a 3 capsule BID dosing regimen through Day 14. Subjects randomized to ibudilast started at 60 mg/d (30 mg BID) on Day 2 and remained on 60 mg/d through Day 14. Beginning on Day 15, all subjects increased dosing to 5 capsules BID regimen; those randomized to the ibudilast treatment arm were taking 100 mg/d. After Day 15, subjects with intolerable side-effects (e.g., nausea, diarrhea, vertigo) were allowed to reduced their dose to either 4 capsules twice a day (80 mg/d for those taking ibudilast) or 3 capsules twice a day (60 mg/d for those taking ibudilast). Subjects with intolerable side-effects (e.g., nausea, diarrhea, vertigo) at the end of Day 14 were allowed to continue taking 3 capsules twice a day at the Investigator's discretion. At the Investigator's discretion, the daily dose of ibudilast were potentially adjusted between 3 capsules twice a day, 4 capsules twice a day, and 5 capsules twice a day over the first 8 weeks of treatment. […]
# [2] = Sanftner et al., Xenobiotica 2009 39: 964-977; cited from earlier work
smiles,measurement,setting,value
"CC(C)C(=O)c1c(C(C)C)nn2ccccc12 [ibudilast, 3-isobutyryl-2-isopropylpyrazolo[1,5-a]pyridine]",macular volume loss and GCIP layer thinning (in words),[1]; Cirrus OCT,favorable changes towards reduced macular volume loss and GCIP layer thinning
same,"rate of macular volume loss, between-group difference per year","[1]; Cirrus OCT, ibudilast vs placebo, 95% CI: −0.0090 to 0.0499",0.0204 mm^3
same,"ganglion cell-inner plexiform layer thinning, between-group difference per year","[1]; Cirrus OCT, ibudilast vs placebo, 95% CI: −0.1189 to 1.0578",0.469 µm/year
same,annual macular volume loss compared to placebo (in words),[1]; Spectralis OCT over 96 weeks,slower
same,"rate of macular volume loss, between-group difference per year","[1]; Spectralis OCT, ibudilast vs placebo, 95% CI: 0.0008 to 0.0623",0.0316 mm^3
same,estimated rate of macular volume change per year,"[1]; patients followed with Cirrus OCT, 95% CI: −0.02167 to 0.020866, placebo −0.02083, p=0.1734",−0.0004 mm^3
same,estimated rate of macular volume change per year,"[1]; patients followed with Spectralis OCT, 95% CI: −0.02693 to 0.01688, placebo −0.03659, p=0.044",−0.00503 mm^3
same,CNS distribution / penetration (in words),[2],distributes well to the CNS; also recorded: good CNS penetration
